Results published in patent publication EP0703239A1, “Aminomethylphosphonic and aminomethylphosphinic acids derivatives and their use in the treatment of degenerative articular diseases” (priority 1994, dated 1996).
Like-named read-outs stand apart in the source and are kept apart here.

Legend:
Chondrozyten [1] = assay: Stimulation of cartilage matrix (proteoglycan) synthesis in chondrocyte agarose culture, 35S-sulfate incorporation; type: cell-based, Rinder; details: for fold induction at 10 µM: Chondrocyte, read-out: Stimulationsfaktor der Proteoglykansynthese
Excerpt: 1. Wirksamkeit in der Synthese-Stimulierung von Knorpel-Matrix, Prüfung in der Chondrozyten-Kultur
Zellen: Den Fußgelenken frisch geschlachteter Rinder werden der hyaline Knorpel entnommen, mit Pronase (Boehringer Mannheim) und Collagenase (Sigma), die native Matrix enzymatisch abgebaut, und die Chondrozyten in 1 %iger "low melting Agarose" in 24er Multiwell-Schalen in einer Zelldichte von 4 x 10⁶ pro well ausplattiert.
Medium: Komplettes Medium enthält HAM's F12 (Biochrom KG, Berlin) und 10 % foetales Kälberserum (Boehringer Mannheim), die Testsubstanz wird in Medium gelöst, üblicherweise in einer Konzentration von 10⁻⁵ M zugegeben und bei jedem Mediumwechsel erneut zugefügt.
Versuchsdurchführung: Die Behandlung erfolgt vom dritten bis zehnten Tag der Primärkultur, am 9. […] Die dissoziative Extraktion der Proteoglykane aus der Agarose-Schicht wird mit 8M Guanidinium-Hydrochlorid und beigefügten Proteinase-Inhibitoren (Sigma) unter Schütteln bei 4° C über 24 h durchgeführt. Der Überstand wird nach Zentrifugation über eine PD 10 ®Sephadex G 25 Säule in freies und inkorporiertes Sulfat getrennt, dessen Aktivität nach Aliquotierung im β-Szintillationscounter gemessen wird.
Auswertung: Der Parameter für die Matrixproduktion der Chondrozyten ist die Menge synthetisierter Proteoglykane, gemessen als Sulfatinkorporation in cpm. Aus vier Wells pro Gruppe wird der Mittelwert errechnet. Dieser wird durch den Mittelwert der unbehandelten Kontrolle dividiert, und ergibt somit einen Stimulationsfaktor, der bei Stimulation der Matrixsynthese größer 1 ist, bei Hemmung derselben durch Substanzwirkung kleiner 1, und bei unveränderter Matrixsynthese gleich 1 ist.
Als Standard wird Diacerein eingesetzt, das unter dem Markennamen "Artodar" von der Firma Proter bzw. […] Tabelle II

Rattenlebermikrosomen = assay: Inhibition of microsomal lipid peroxidation (malondialdehyde/thiobarbituric acid); type: biochemical, Ratte; details: rat liver microsomes, FeSO₄ start, 10 min 37°C; read-out: IC50 Mikrosomale Lipidperoxidation
Protocol: 4. Hemmung der Mikrosomalen Lipidperoxidation […]
Alle Schritte werden bei 0°C durchgeführt. Die Leber einer Ratte wird, um alles Hämoglobin zu entfernen, mit 0,9 % NaCl-Lösung gründlich gespült. Die grob zerkleinerte Leber wird dann in 10 mM Tris/HCl pH 7,4; 250 mM Saccharose (10 ml Puffer/g Leber) gepottert. Zunächst wird 5 Minuten bei 600xg zentrifugiert. Der Überstand wird dann 10 min bei 12000xg zentrifugiert und wird mit festem CaCl₂ (117,6 mg/100 ml) auf eine Konzentration von 8 mM eingestellt. Durch Zentrifugieren bei 25000 xg (15 min) wird ein Mikrosomenniederschlag gewonnen. Dieser Niederschlag wird im gleichen Volumen Puffer (10 mM Tris/HCl pH 7,4; 150 mM KCl) rehomogenisiert und erneut 15 min bei 25000 xg zentrifugiert.
Ein Testansatz besteht aus 20 µl Mikrosomen (100 mg/ml), vgl. oben, gelöst in Puffer (250 mM Tris/HCl pH 6,6, 750 mM KCl), 10 µl 50 mM MgCl₂, 10 µl 200 mM Isocitronensäure, 10 µl 4mM NADP (3,028 mg/ml Wasser), 10 µl 25 mM Niacinamid, 10 µl Isocitratdehydrogenase (1:100 verdünnt) und 20 µl Wasser oder Testsubstanz. Gestartet wird die Reaktion mit 10 µl 0,25 mM FeSO₄. Die Inkubation dauert 10 Minuten und erfolgt bei 37°C. Gestoppt wird mit 500 µl eiskalter 20 %iger Trichloressigsäure. Entstandenes Malondialdehyd wird durch Zugabe von 500 µl 0,67 %iger Thiobarbitursäure und 30 Minuten Inkubation bei 90°C in eine pinkfarbene Verbindung überführt, die bei 532 nm gemessen wird. Die Extinktion im Kontrollansatz ohne Prüfpräparat wird auf 0 % Hemmung gesetzt, während das völlige Verschwinden des Signals 100 % Hemmung bedeutet.

Chondrozyten [2] = assay: IL-1-induced chondrocytic chondrolysis in chondrocyte agarose culture, 35S-sulfate incorporation; details: agarose cell culture with 5 u/ml human rec. IL-1 alpha; factor relative to IL-1 treated control
[3] = agarose cell culture, test substance usually 10⁻⁵ M, mean sulfate incorporation divided by untreated control (>1 = stimulation)

## 1-(4-Chloranilino)-1-(3,5-di-tert.butyl-4-hydroxy-phenyl)-methanphosphonsäurediethylester [Beispiel 1]
Chondrozyten [1]; agarose cell culture, test substance usually 10⁻⁵ M, mean sulfate incorporation divided by untreated control (>1 = stimulation), 10 µM
  Stimulationsfaktor der Proteoglykansynthese: 1,4
Rattenlebermikrosomen
  IC50: 2430 nM
Chondrozyten [2]
  Stimulationsfaktor der Proteoglykansynthese: 1,5

## CC(C)(C)c1cc(C(Nc2ccc(Cl)cc2)P(=O)(O)O)cc(C(C)(C)C)c1O (centres unmarked) [Beispiel 4]
Rattenlebermikrosomen
  IC50: 710 nM

## CCOP(=O)(OCC)C(NC1CCCCC1)c1cc(C(C)(C)C)c(O)c(C(C)(C)C)c1 (centres unmarked) [Beispiel 8]
Chondrozyten [1]
  fold induction at 10 µM: 1.2
Rattenlebermikrosomen
  IC50: 730 nM

## CCCOP(=O)(OCCC)C(NC1CCCCC1)c1cc(C(C)(C)C)c(O)c(C(C)(C)C)c1 (centres unmarked) [Beispiel 9]
Rattenlebermikrosomen
  IC50: 2100 nM

## CCCCOP(=O)(OCCCC)C(NC1CCCCC1)c1cc(C(C)(C)C)c(O)c(C(C)(C)C)c1 (centres unmarked) [Beispiel 10]
Rattenlebermikrosomen
  IC50: 9000 nM
Chondrozyten [2]
  Stimulationsfaktor der Proteoglykansynthese: 1,5

## CCOP(=O)(OCC)C(NC1CCCCCC1)c1cc(C(C)(C)C)c(O)c(C(C)(C)C)c1 (centres unmarked) [Beispiel 11]
Rattenlebermikrosomen
  IC50: 970 nM

## CCN(CC)CCNC(c1cc(C(C)(C)C)c(O)c(C(C)(C)C)c1)[PH](=O)O (centres unmarked) [Beispiel 14]
Chondrozyten [2]
  Stimulationsfaktor der Proteoglykansynthese: 1,2

## CCOP(=O)(OCC)C(NC1CC(C)(C)NC(C)(C)C1)c1cc(C(C)(C)C)c(O)c(C(C)(C)C)c1 (centres unmarked) [Beispiel 17]
Rattenlebermikrosomen
  IC50: 3180 nM

## CCOP(=O)(OCC)C(NC1CCN(Cc2ccccc2)CC1)c1cc(C(C)(C)C)c(O)c(C(C)(C)C)c1 (centres unmarked) [Beispiel 18]
Rattenlebermikrosomen
  IC50: 2030 nM

## CCOP(=O)(OCC)C(NC(C)C(=O)OC)c1cc(C(C)(C)C)c(O)c(C(C)(C)C)c1 (centres unmarked) [Beispiel 19]
Chondrozyten [2]
  Stimulationsfaktor der Proteoglykansynthese: 4,3

## CCOP(=O)(OCC)C(NC(CC(C)C)C(=O)OC)c1cc(C(C)(C)C)c(O)c(C(C)(C)C)c1 (centres unmarked) [Beispiel 20]
Rattenlebermikrosomen
  IC50: 2100 nM

## CCCN(CCC)C(c1cc(C(C)(C)C)c(O)c(C(C)(C)C)c1)P(=O)(OCC)OCC (centres unmarked) [Beispiel 21]
Rattenlebermikrosomen
  IC50: 6350 nM

## CC(C)(C)c1cc(C(NCc2ccccc2)[PH](=O)O)cc(C(C)(C)C)c1O (centres unmarked) [Beispiel 27]
Chondrozyten [2]
  Stimulationsfaktor der Proteoglykansynthese: 1,2

## CC(C)(C)c1cc(C(NCc2ccc3c(c2)OCO3)[PH](=O)O)cc(C(C)(C)C)c1O (centres unmarked) [Beispiel 28]
Chondrozyten [2]
  Stimulationsfaktor der Proteoglykansynthese: 5,5

## COP(=O)(OC)C(NCc1ccc2c(c1)OCO2)c1cc(C(C)(C)C)c(O)c(C(C)(C)C)c1 (centres unmarked) [Beispiel 29]
Rattenlebermikrosomen
  IC50: 690 nM
Chondrozyten [2]
  Stimulationsfaktor der Proteoglykansynthese: 1,5

## CCOP(=O)(OCC)C(NCc1ccc2c(c1)OCO2)c1cc(C(C)(C)C)c(O)c(C(C)(C)C)c1 (centres unmarked) [Beispiel 30]
Chondrozyten [1]
  fold induction at 10 µM: 1.4
Chondrozyten [2]
  Stimulationsfaktor der Proteoglykansynthese: 1,5

## CCOP(=O)(OCC)C(NCc1ccc(OC)cc1)c1cc(C(C)(C)C)c(O)c(C(C)(C)C)c1 (centres unmarked) [Beispiel 32]
Chondrozyten [2]
  Stimulationsfaktor der Proteoglykansynthese: 1,4

## CCOP(=O)(OCC)C(NCc1ccc(Cl)cc1)c1cc(C(C)(C)C)c(O)c(C(C)(C)C)c1 (centres unmarked) [Beispiel 33]
Chondrozyten [2]
  Stimulationsfaktor der Proteoglykansynthese: 2,2

## CCOP(=O)(OCC)C(NCc1ccc(N)cc1)c1cc(C(C)(C)C)c(O)c(C(C)(C)C)c1 (centres unmarked) [Beispiel 34]
Chondrozyten [1]
  fold induction at 10 µM: 1.2
Rattenlebermikrosomen
  IC50: 700 nM

## CCOP(=O)(OCC)C(NCc1ccc(C#N)cc1)c1cc(C(C)(C)C)c(O)c(C(C)(C)C)c1 (centres unmarked) [Beispiel 35]
Chondrozyten [2]
  Stimulationsfaktor der Proteoglykansynthese: 3,9

## CC(C)(C)c1cc(C(Nc2ccccc2)[PH](=O)O)cc(C(C)(C)C)c1O (centres unmarked) [Beispiel 36]
Chondrozyten [1]; [3]
  fold induction at 10 µM: 1.2
Chondrozyten [2]
  Stimulationsfaktor der Proteoglykansynthese: 2,5

## CCOP(=O)(OCC)C(Nc1ccccc1)c1cc(C(C)(C)C)c(O)c(C(C)(C)C)c1 (centres unmarked) [Beispiel 37]
Chondrozyten [2]
  Stimulationsfaktor der Proteoglykansynthese: 1,5

## CCOP(=O)(OCC)C(Nc1ccc(F)cc1)c1cc(C(C)(C)C)c(O)c(C(C)(C)C)c1 (centres unmarked) [Beispiel 38]
Chondrozyten [1]
  fold induction at 10 µM: 1.7
Chondrozyten [2]
  Stimulationsfaktor der Proteoglykansynthese: 1,3

## CCOP(=O)(OCC)C(Nc1ccccc1Cl)c1cc(C(C)(C)C)c(O)c(C(C)(C)C)c1 (centres unmarked) [Beispiel 39]
Rattenlebermikrosomen
  IC50: 2400 nM

## CC(C)(C)c1cc(C(Nc2ccc(Cl)cc2)[PH](=O)O)cc(C(C)(C)C)c1O (centres unmarked) [Beispiel 40]
Rattenlebermikrosomen
  IC50: 490 nM
Chondrozyten [2]
  Stimulationsfaktor der Proteoglykansynthese: 2,1

## CC(C)(C)c1cc(C(Nc2ccc(Cl)cc2)P(C)(=O)O)cc(C(C)(C)C)c1O (centres unmarked) [Beispiel 41]
Chondrozyten [2]
  Stimulationsfaktor der Proteoglykansynthese: 3,5

## COP(=O)(OC)C(Nc1ccc(Cl)cc1)c1cc(C(C)(C)C)c(O)c(C(C)(C)C)c1 (centres unmarked) [Beispiel 43]
Rattenlebermikrosomen
  IC50: 790 nM
Chondrozyten [2]
  Stimulationsfaktor der Proteoglykansynthese: 1,4

## CCCOP(=O)(OCCC)C(Nc1ccc(Cl)cc1)c1cc(C(C)(C)C)c(O)c(C(C)(C)C)c1 (centres unmarked) [Beispiel 44]
Rattenlebermikrosomen
  IC50: 1050 nM
Chondrozyten [2]
  Stimulationsfaktor der Proteoglykansynthese: 1,5

## C=CCOP(=O)(OCC=C)C(Nc1ccc(Cl)cc1)c1cc(C(C)(C)C)c(O)c(C(C)(C)C)c1 (centres unmarked) [Beispiel 46]
Rattenlebermikrosomen
  IC50: 860 nM

## CC(C)(C)c1cc(C(Nc2ccc(Cl)cc2)P(=O)(Oc2ccccc2)Oc2ccccc2)cc(C(C)(C)C)c1O (centres unmarked) [Beispiel 47]
Chondrozyten [2]
  Stimulationsfaktor der Proteoglykansynthese: 1,8

## CCOP(=O)(OCC)C(Nc1ccc(Cl)c(Cl)c1)c1cc(C(C)(C)C)c(O)c(C(C)(C)C)c1 (centres unmarked) [Beispiel 48]
Rattenlebermikrosomen
  IC50: 2950 nM
Chondrozyten [2]
  Stimulationsfaktor der Proteoglykansynthese: 1,7

## CCOP(=O)(OCC)C(Nc1ccc(C(F)(F)F)cc1)c1cc(C(C)(C)C)c(O)c(C(C)(C)C)c1 (centres unmarked) [Beispiel 51]
Chondrozyten [1]
  fold induction at 10 µM: 1.6

## CCOP(=O)(OCC)C(Nc1cc(C(F)(F)F)ccc1F)c1cc(C(C)(C)C)c(O)c(C(C)(C)C)c1 (centres unmarked) [Beispiel 52]
Chondrozyten [1]
  fold induction at 10 µM: 1.7

## CCOP(=O)(OCC)C(c1cc(C(C)(C)C)c(O)c(C(C)(C)C)c1)N(C)c1ccc(Cl)cc1 (centres unmarked) [Beispiel 54]
Rattenlebermikrosomen
  IC50: 2800 nM
Chondrozyten [2]
  Stimulationsfaktor der Proteoglykansynthese: 1,4

## CCOP(=O)(OCC)C(Nc1ccc(OC)cc1)c1cc(C(C)(C)C)c(O)c(C(C)(C)C)c1 (centres unmarked) [Beispiel 57]
Chondrozyten [1]
  fold induction at 10 µM: 1.5
Chondrozyten [2]
  Stimulationsfaktor der Proteoglykansynthese: 1,4

## CCOP(=O)(OCC)C(Nc1ccc(OC)c(OC)c1)c1cc(C(C)(C)C)c(O)c(C(C)(C)C)c1 (centres unmarked) [Beispiel 58]
Chondrozyten [1]
  fold induction at 10 µM: 2.5
Chondrozyten [2]
  Stimulationsfaktor der Proteoglykansynthese: 1,2

## CCOP(=O)(OCC)C(Nc1ccccc1C(=O)OC)c1cc(C(C)(C)C)c(O)c(C(C)(C)C)c1 (centres unmarked) [Beispiel 65]
Chondrozyten [1]
  fold induction at 10 µM: 1.3
Rattenlebermikrosomen
  IC50: 730 nM

## CCOP(=O)(OCC)C(Nc1ccc(C(=O)OC)cc1)c1cc(C(C)(C)C)c(O)c(C(C)(C)C)c1 (centres unmarked) [Beispiel 66]
Rattenlebermikrosomen
  IC50: 750 nM

## CCOP(=O)(OCC)C(Nc1ccc(S(N)(=O)=O)cc1)c1cc(C(C)(C)C)c(O)c(C(C)(C)C)c1 (centres unmarked) [Beispiel 68]
Rattenlebermikrosomen
  IC50: 2370 nM
Chondrozyten [2]
  Stimulationsfaktor der Proteoglykansynthese: 1,3

## CCOP(=O)(OCC)C(Nc1ccc(NC(=N)N)cc1)c1cc(C(C)(C)C)c(O)c(C(C)(C)C)c1 (centres unmarked) [Beispiel 73]
Rattenlebermikrosomen
  IC50: 670 nM

## CCOP(=O)(OCC)C(Nc1ccc2c(c1)CCCC2)c1cc(C(C)(C)C)c(O)c(C(C)(C)C)c1 (centres unmarked) [Beispiel 75]
Rattenlebermikrosomen
  IC50: 2900 nM

## CCOP(=O)(OCC)C(Nc1ccc2ccccc2c1)c1cc(C(C)(C)C)c(O)c(C(C)(C)C)c1 (centres unmarked) [Beispiel 76]
Rattenlebermikrosomen
  IC50: 2050 nM

## CCCCOP(=O)(OCCCC)C(Nc1ccc2ccccc2c1)c1cc(C(C)(C)C)c(O)c(C(C)(C)C)c1 (centres unmarked) [Beispiel 77]
Rattenlebermikrosomen
  IC50: 8700 nM
Chondrozyten [2]
  Stimulationsfaktor der Proteoglykansynthese: 1,3

## CCOP(=O)(O)C(Nc1ccccn1)c1cc(C(C)(C)C)c(O)c(C(C)(C)C)c1 (centres unmarked) [Beispiel 78]
Chondrozyten [1]
  fold induction at 10 µM: 1.4

## CC(=O)Oc1cccc2c1C(=O)c1c(OC(C)=O)cc(C(=O)O)cc1C2=O [Diacerein, reference compound]
Chondrozyten [1]; [3]
  fold induction at 10 µM: 1
Chondrozyten [2]
  Stimulationsfaktor der Proteoglykansynthese: 1,1
